Data set [1] has as its system 3D7-strain P. falciparum asexual parasites. As to the kind of experiment: P. falciparum asexual growth inhibition assay (Pf GIA). It is filed as cell-based, Plasmodium falciparum. The note with it: dose response confirmation; read-out: Pf asexual growth inhibition assays IC50. The method in brief:
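Read-out was lactate dehydrogenase activity measured by absorbance at 650 nm after freezing and thawing, against 50 μM chloroquine and DMSO controls. Before that, asexual 3D7 cultures (0.25% parasitemia, 2% hematocrit) had 72 h dose-response compound exposure at 37°C in 5% CO2/5% O2/90% N2; three independent replicates averaged.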

For another data set, the system named is HepG2 cells. As to the kind of experiment: HepG2 cytotoxicity assay. To be noted: for IC50: read-out: HepG2 cytotoxicity assay IC50, dose response confirmation; for Pb ODA (this manuscript) HepG2 cytoxicity: HepG2 cytotoxicity listed with the Pb ODA data set (this manuscript). The method in brief: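 HepG2 cells, 2,500 per well in MEM with 10% FBS and 1% NEAA, exposed to compounds for 48 h at 37°C, 5% CO2. Viability read by fluorescence; percent inhibition relative to 50 μM doxorubicin and DMSO controls.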

Data set [2] has as its system P. berghei ookinete development. To be noted: for % inhibition, Replicate A / % inhibition, Replicate B: primary screen at 1 μM.
Setting [3] is: unified HepG2 value across the three screens.
Where [4] appears, read: read-out: Pb ODA IC50, this manuscript.
Setting [5] is: read-out: Pb Ookinete development assay IC50, dose response confirmation.
[6] abbreviates: HepG2 values of the three screens unified.
[7] abbreviates: read-out: Pb ODA (this manuscript) IC50, P. berghei ookinete development assay, this manuscript.

Molecules are shown by their SMILES. Read-outs that look alike come from different tables or passages of the source. Bounds are passed on as bounds.

Regarding `COc1cc(NC2=NS(=O)(=O)c3cc(Cl)ccc3N2C)cc(OC)c1OC.O=C(O)C(F)(F)F` [TCMDC-134208], the IC50 (usually the concentration needed to halve the response being measured) came to 146 nM in data set [1], 100 µM with HepG2 cells, 1350 nM in data set [2] (setting [4]) and 1350 nM in data set [2] (setting [5]). Moreover, the “Unified cytotox” value with HepG2 cells (setting [3]) stood at 100.00 µM. The “Is compound selective in assay? Pb ODA active?” value (“Is compound selective” for short) in data set [2] (1: YES, 0: NO) is given as 1 (1: YES). In addition, in data set [2], the “% inhibition, Replicate A” value was found to be 117.05%. The “% inhibition, Replicate B” value in data set [2] worked out at 98.94%.
Turning to `Cc1[nH]c(C)c(-c2ccc(OCc3ccccc3C(F)(F)F)nc2)c(=O)c1Br` [TCMDC-135796], the IC50 in data set [1] turned out to be 36 nM; in the data set with HepG2 cells, 3.02 µM; in data set [2] (setting [4]), 40 nM; in data set [2] (setting [5]), 42 nM. In addition, the “HepG2 cytoxicity (Pb ODA, this manuscript)” value with HepG2 cells is 3.02 µM. Further, in the data set with HepG2 cells (setting [6]), the Unified cytotox stood at 3.02 µM. Further, the “Is compound selective” value in data set [2] (1: YES, 0: NO) is on record as 1 (1: YES). Moreover, in data set [2], the “% inhibition, Replicate A” value is 84.05%. Also, the “% inhibition, Replicate B” value in data set [2] amounted to 98.42%.
For the compound `Cc1cc(=O)c2cc(-c3ccc(OC(F)(F)F)cc3)ccc2[nH]1` [TCMDC-137042], the IC50 came to 2190 nM in data set [1], 100 µM in the data set with HepG2 cells, 6380 nM in data set [2] (setting [4]) and 6380 nM in data set [2] (setting [5]). Besides, the “Unified cytotox” value with HepG2 cells (setting [3]) was 100.00 µM. For the same compound, the “Is compound selective” value in data set [2] (1: YES, 0: NO) is given as 1 (1: YES). Besides, the “% inhibition, Replicate A” value in data set [2] amounted to 37.82%. Moreover, the “% inhibition, Replicate B” value in data set [2] was found to be 64.25%.
With `COc1ccc2nccc([C@@H](O)CN3CCC(NCc4cc5ccccc5nc4O)CC3)c2c1.Cl` [TCMDC-140759], the IC50 in data set [1] was determined as 431 nM; in the data set with HepG2 cells, 49 µM; in data set [2] (setting [4]), 2010 nM; in data set [2] (setting [5]) it was 2010 nM. The “HepG2 cytoxicity (Pb ODA, this manuscript)” value in the data set on HepG2 cells was 48.98 µM. In the data set on HepG2 cells (setting [6]), this compound displayed a Unified cytotox of 48.98 µM. Further, the “Is compound selective” value in data set [2] (1: YES, 0: NO) is reported as 1 (1: YES). Besides, in data set [2], the “% inhibition, Replicate A” value came to 50.79%. In addition, the “% inhibition, Replicate B” value in data set [2] was determined as 52.50%.
With `Cc1cc(NC(c2ccc(Cl)cc2)c2ccc3cccnc3c2O)no1` (stereo not shown) [TCMDC-123828], the concentration for half-maximal inhibition (IC50) in data set [1] was 2550 nM; in the data set with HepG2 cells, 1.38 µM; in data set [2] (setting [4]), 3020 nM; in data set [2] (setting [5]), 3020 nM. For the same compound, in the data set with HepG2 cells (setting [3]), the “Unified cytotox” value is listed as 1.38 µM. Further, in data set [2] (1: YES, 0: NO), the “Is compound selective” value was 0 (0: NO). Moreover, the “% inhibition, Replicate A” value in data set [2] turned out to be 41.30%. In addition, the “% inhibition, Replicate B” value in data set [2] turned out to be 61.82%.
In the case of `COc1ccc2nccc([C@@H](O)CN3CCC(NC(=O)c4ccc5cc[nH]c5c4)CC3)c2c1.CS(=O)(=O)O` [TCMDC-140743], the IC50 came to 1130 nM in data set [1], 100 µM in the data set on HepG2 cells, 460 nM in data set [2] (setting [4]) and 459 nM in data set [2] (setting [5]). Also, the Unified cytotox with HepG2 cells (setting [6]) is 100.00 µM. In addition, the “Is compound selective” value in data set [2] (1: YES, 0: NO) was 1 (1: YES). Moreover, in data set [2], the “% inhibition, Replicate A” value amounted to 89.95%. The “% inhibition, Replicate B” value in data set [2] stood at 58.25%.
Take `CCN(CC)c1ccccc1CNC(=O)c1cc(Cl)c(N)cc1OC` [TCMDC-131416]: the IC50 in data set [1] was less than 0.2 nM; in the data set on HepG2 cells, 41.7 µM; in data set [2] (setting [4]), 1320 nM; in data set [2] (setting [5]), 1320 nM. Further, the “Unified cytotox” value in the data set on HepG2 cells (setting [3]) is 41.69 µM. In data set [2] (1: YES, 0: NO), the “Is compound selective” value is 1 (1: YES). The “% inhibition, Replicate A” value in data set [2] was 54.83%. In data set [2], the “% inhibition, Replicate B” value amounted to 54.70%.
With `Cc1cc(C)cc(-n2c(C)cc(/C=C3\SC(=Nc4ccc(Cl)cc4)NC3=O)c2C)c1` [TCMDC-124103], the half-maximal inhibitory concentration (IC50) in data set [1] stood at 32 nM; in the data set on HepG2 cells, 100 µM; in data set [2] (setting [4]), 560 nM; in data set [2] (setting [5]), 561 nM. Further, in the data set on HepG2 cells (setting [3]), the “Unified cytotox” value is on record as 100.00 µM. In addition, the “Is compound selective” value in data set [2] (1: YES, 0: NO) is 1 (1: YES). Moreover, in data set [2], the “% inhibition, Replicate A” value was 110.51%. Moreover, the “% inhibition, Replicate B” value in data set [2] was found to be 94.72%.
As for `Cc1noc(C)c1-c1ccc2c(Nc3ccc(C#N)cc3)c(C(N)=O)cnc2c1` [TCMDC-136029], the half-maximal inhibitory concentration (IC50) in data set [1] is 609 nM. Further, in the data set on HepG2 cells, the “Pb ODA (this manuscript) HepG2 cytoxicity” value came out at 69.18 µM and the half-inhibitory concentration (IC50) was 69.2 µM. In data set [2], the “Is compound selective” value was 1 (key: 1: YES; 0: NO); the “% inhibition, Replicate A” value was 61.24%; the “% inhibition, Replicate B” value was determined as 98.78%. Also, in data set [2] (setting [7]), the IC50 stood at 3830 nM. The IC50 in data set [2] (setting [5]) is 3830 nM.
Turning to `COc1ccc2nc3cc(Cl)ccc3c(NCc3ccccc3)c2c1.Cl` [TCMDC-137663], the IC50 in data set [1] worked out at 424 nM; in the data set on HepG2 cells, 41.7 µM; in data set [2] (setting [7]) it was 1630 nM; in data set [2] (setting [5]), 1630 nM. Besides, the “Pb ODA (this manuscript) HepG2 cytoxicity” value in the data set with HepG2 cells was 41.69 µM. For the same compound, the “Is compound selective” value in data set [2] is reported as 1 (key: 1: YES; 0: NO). Also, the “% inhibition, Replicate A” value in data set [2] was found to be 39.90%. Besides, in data set [2], the “% inhibition, Replicate B” value amounted to 59.60%.
With `Cl.Nc1nc(N)c2c(ccc3nn(S(=O)(=O)N4CCCC4)cc32)n1` [TCMDC-137854], in data set [1], the 50% inhibitory concentration (IC50) amounted to 144 nM. In the data set on HepG2 cells, the “Pb ODA (this manuscript) HepG2 cytoxicity” value is given as 0.12 µM and the IC50 worked out at 0.12 µM. For the same compound, in data set [2], the “Is compound selective” value is 0 (key: 1: YES; 0: NO); the “% inhibition, Replicate A” value was determined as 55.32%; the “% inhibition, Replicate B” value was found to be 26.78%. Also, the IC50 in data set [2] (setting [7]) was found to be 5300 nM. Also, in data set [2] (setting [5]), the 50% inhibitory concentration (IC50) came out at 5300 nM.
Turning to `Cc1[nH]c(C)c(-c2ccc(/C=C/c3ccccn3)cc2)c(=O)c1Cl` [TCMDC-135787], the values for the IC50 (in data set [1]; in the data set on HepG2 cells; in data set [2] (setting [5])) were 1260 nM, 100 µM and 1050 nM, respectively. The Unified cytotox in the data set with HepG2 cells (setting [6]) was determined as 100.00 µM. Besides, the “Is compound selective” value in data set [2] (1: YES, 0: NO) was 1 (1: YES). The “% inhibition, Replicate A” value in data set [2] is recorded as 50.60%. The “% inhibition, Replicate B” value in data set [2] is given as 51.03%.
Take `Cl.Nc1nc(N)c2c(ccc3c2cnn3S(=O)(=O)N2CCCC2)n1` [TCMDC-137852]: in data set [1], the concentration for half-maximal inhibition (IC50) was found to be 3.8 nM. For the same compound, in the data set on HepG2 cells, the “Pb ODA (this manuscript) HepG2 cytoxicity” value was 0.00412 µM and the IC50 turned out to be 0.00412 µM. In addition, in data set [2], the “Is compound selective” value is on record as 0 (key: 1: YES; 0: NO); the “% inhibition, Replicate A” value turned out to be 40.87%; the “% inhibition, Replicate B” value is recorded as 51.00%. For the same compound, the IC50 in data set [2] (setting [5]) is 1530 nM.
Consider `COc1ccc2nccc([C@@H](O)CN3CCC(NCc4cc5ccc(C#N)cc5[nH]4)CC3)c2c1.O=C(O)C(=O)O` [TCMDC-140696], for which the half-maximal inhibitory concentration (IC50) in data set [1] stood at 168 nM; with HepG2 cells, 1.55 µM; in data set [2] (setting [4]), 1880 nM; in data set [2] (setting [5]), 1880 nM. Further, the “HepG2 cytoxicity (Pb ODA, this manuscript)” value in the data set on HepG2 cells worked out at 1.55 µM. Also, the Unified cytotox in the data set on HepG2 cells (setting [6]) is given as 1.55 µM. In addition, in data set [2] (1: YES, 0: NO), the “Is compound selective” value was 0 (0: NO). Moreover, the “% inhibition, Replicate A” value in data set [2] is 54.58%. The “% inhibition, Replicate B” value in data set [2] came out at 89.62%.
With `COc1ccc(C23Oc4cc(OC)cc(OC)c4C2(O)C2(CC3c3ccccc3)SCCCS2)cc1` (stereo not shown) [TCMDC-132098], the concentration for half-maximal inhibition (IC50) in data set [1] was determined as 712 nM; with HepG2 cells it was 100 µM; in data set [2] (setting [4]), 400 nM; in data set [2] (setting [5]), 401 nM. The “Unified cytotox” value with HepG2 cells (setting [3]) came to 100.00 µM. Further, the “Is compound selective” value in data set [2] (1: YES, 0: NO) is on record as 1 (1: YES). The “% inhibition, Replicate A” value in data set [2] was found to be 104.91%. Besides, in data set [2], the “% inhibition, Replicate B” value was determined as 114.13%.
